According to US5278308A, “Iodine derivatives of tetrabenazine” (The Trustees of The University of Pennsylvania, priority 1992, dated 1994):
Like-named read-outs stand apart in the source and are kept apart here.

Key:
[1] = system: monoamine uptake-storage mechanism of amine granules in the synapse; settings: in vivo; cited from earlier work
[2] = Biodistribution in rats (iv injection); format: in vivo; settings: rat; for Blood uptake (blood assumed 7% of body weight) / Heart uptake / Kidney uptake / Liver uptake / Lung uptake / Muscle uptake (muscle assumed 40% of body weight) / Skin uptake / Spleen uptake / Thyroid uptake / Brain uptake: iv
Protocol: While under ether anesthesia, each rat was injected in the femoral vein with 0.2 mL saline solution containing [^123 I]I-TBZ (1-5uCi) either racemic mixture, peak-A or peak-B. The rats were sacrificed at various time points postinjection by cardiac excision. The tissues were weighed and the radioactivity was measured with a Canberra gamma counter (Model 5000). The percent dose per organ was calculated by a comparison of the tissue counts to suitably diluted aliquots of the injected material. Total activities of blood and muscle were calculated assuming that they were 7% and 40% of total body weight, respectively Results are presented in Tables 3, 4A and 4B.

[3] = Regional brain distribution in rats (dissection, iv injection); format: in vivo; settings: for Regional brain uptake, cerebellum / Regional brain uptake, cortex / Regional brain uptake, hippocampus / Regional brain uptake, striatum / tissue uptake at 2 min / tissue uptake at 0.5 h / tissue uptake at 4 h / tissue uptake at 6 h / tissue uptake at 16 h: rat; for tissue uptake at 0.5 h: 30 min; for tissue uptake at 4 h: 240 min; for tissue uptake at 6 h: 2 rats only
Protocol: Regional brain distribution of [^123 I]I-TBZ (with either a racemic mixture, peak A or B) in rats was obtained after an iv injection. By dissecting, weighing and counting samples from different brain regions (cortex, striatum, hippocampus and cerebellum), % dose/gram of the samples was calculated by comparing the sample counts with the counts of the diluted initial dose. The ratio of uptake in each region was obtained by dividing % dose/gram of each region with that of the cerebellum. The effect of tetrahydrobenazine on the uptake of peak A or peak B was investigated by pretreating the rats with the TBZ 3 mg/rat at 3 min before iv injection of [^123 I]I-TBZ. At 20 min. post injection the rats were dissected and the regional brain dissection was carried out as above.

[4] = Stability of radiolabeled compound at room temperature; format: physicochemical
Protocol: The […] labeled iodovinYl-TBZ derivative ([^123 I]-TBZ, 2b) was prepared by an iododestannylation reaction. Aqueous hydrogen peroxide (1 mg/mL EtOH), 200 uL of 0.1 N HCl and 5 mCi [^123 I]sodium iodide were combined in a sealed vial. The reaction was allowed to proceed at room temperature for 20 min, after which it was terminated by addition of 0.1 mL sodium bisulfite (300 mg/ml). The reaction was then neutralized with NaHCO3 and extracted with ethyl acetate (3×1 mL). The combined organic layers were dried under nitrogen and the desired product was purified through HPLC on a reverse phase column (PRP-1, Hamilton) eluting with a isocratic solvent of 90% acetonitrile-10% buffer (5 mM 3,3'-dimethylglutaric acid, pH 7.0) and a flow rate of 1 mL/min. The radiochemical purity was analyzed by the above chromatographic system and the purified [^123 I] product (yield 50%, purity >98%) was obtained for animal experiments. The radiolabeled [^123 I]I-TBZ is stable at room temperature for up to 15 h.

[5] = cerebellum, read-out: Regional brain uptake, cerebellum
[6] = cortex, read-out: Regional brain uptake, cortex
[7] = hippocampus, read-out: Regional brain uptake, hippocampus
[8] = striatum, read-out: Regional brain uptake, striatum

COC(=O)[C@H]1[C@H]2C[C@@H]3c4[nH]c5cc(OC)ccc5c4CCN3C[C@H]2C[C@@H](OC(=O)c2cc(OC)c(OC)c(OC)c2)[C@@H]1OC [Reserpine]
Irreversible damage to storage mechanism / neurons (in words) [1]: the storage mechanism is irreversibly damaged

COc1cc2c(cc1OC)C1CC(O)(C=C[123I])C(CC(C)C)CN1CC2 (racemic) [Compound 2b]
Crossing of the intact blood brain barrier and localization in the brain (in words) [2]: can cross the intact blood brain barrier and localize in the brain
Blood uptake (blood assumed 7% of body weight) ([2]; 2 min): 5.99 ± 2.54 % Dose/organ
Heart uptake ([2]; 2 min): 1.33 ± 0.19 % Dose/organ
Kidney uptake ([2]; 2 min): 4.18 ± 0.46 % Dose/organ
Liver uptake ([2]; 2 min): 11.1 ± 1.22 % Dose/organ
Lung uptake ([2]; 2 min): 4.44 ± 1.44 % Dose/organ
Muscle uptake (muscle assumed 40% of body weight) ([2]; 2 min): 6.93 ± 0.12 % Dose/organ
Skin uptake ([2]; 2 min): 4.08 ± 2.32 % Dose/organ
Spleen uptake ([2]; 2 min): 0.28 ± 0.04 % Dose/organ
Thyroid uptake ([2]; 2 min): 0.06 ± 0.02 % Dose/organ
Brain uptake ([2]; 2 min, listed as [^123 I]I-TBZ (2b)): 0.92 % Dose/organ
Brain uptake ([2]; 2 min, listed as [^123 I]I-TBZ racemic mixture): 0.92 ± 0.13 % Dose/organ
Blood uptake (blood assumed 7% of body weight) ([2]; 30 min): 1.84 ± 0.17 % Dose/organ
Heart uptake ([2]; 30 min): 0.34 ± 0.02 % Dose/organ
Kidney uptake ([2]; 30 min): 1.55 ± 0.21 % Dose/organ
Liver uptake ([2]; 30 min): 9.75 ± 1.83 % Dose/organ
Lung uptake ([2]; 30 min): 1.02 ± 0.14 % Dose/organ
Muscle uptake (muscle assumed 40% of body weight) ([2]; 30 min): 20.18 ± 2.19 % Dose/organ
Skin uptake ([2]; 30 min): 11.53 ± 2.54 % Dose/organ
Spleen uptake ([2]; 30 min): 0.29 ± 0.03 % Dose/organ
Thyroid uptake ([2]; 30 min): 0.03 ± 0.005 % Dose/organ
Brain uptake ([2]; 30 min, listed as [^123 I]I-TBZ (2b)): 0.36 % Dose/organ
Brain uptake ([2]; 30 min, listed as [^123 I]I-TBZ racemic mixture): 0.36 ± 0.05 % Dose/organ
Blood uptake (blood assumed 7% of body weight) ([2]; 60 min): 2.46 ± 0.56 % Dose/organ
Brain uptake ([2]; 60 min): 0.28 ± 0.05 % Dose/organ
Heart uptake ([2]; 60 min): 0.35 ± 0.06 % Dose/organ
Kidney uptake ([2]; 60 min): 1.47 ± 0.22 % Dose/organ
Liver uptake ([2]; 60 min): 8.57 ± 0.41 % Dose/organ
Lung uptake ([2]; 60 min): 1.47 ± 0.64 % Dose/organ
Muscle uptake (muscle assumed 40% of body weight) ([2]; 60 min): 14.9 ± 1.77 % Dose/organ
Skin uptake ([2]; 60 min): 6.39 ± 2.37 % Dose/organ
Spleen uptake ([2]; 60 min): 0.37 ± 0.10 % Dose/organ
Thyroid uptake ([2]; 60 min): 0.05 ± 0.002 % Dose/organ
Blood uptake (blood assumed 7% of body weight) ([2]; 120 min): 2.16 ± 0.21 % Dose/organ
Brain uptake ([2]; 120 min): 0.16 ± 0.03 % Dose/organ
Heart uptake ([2]; 120 min): 0.24 ± 0.06 % Dose/organ
Kidney uptake ([2]; 120 min): 0.97 ± 0.13 % Dose/organ
Liver uptake ([2]; 120 min): 6.71 ± 0.84 % Dose/organ
Lung uptake ([2]; 120 min): 0.78 ± 0.43 % Dose/organ
Muscle uptake (muscle assumed 40% of body weight) ([2]; 120 min): 15.4 ± 4.17 % Dose/organ
Skin uptake ([2]; 120 min): 7.05 ± 1.52 % Dose/organ
Spleen uptake ([2]; 120 min): 0.20 ± 0.06 % Dose/organ
Thyroid uptake ([2]; 120 min): 0.08 ± 0.05 % Dose/organ
Blood uptake (blood assumed 7% of body weight) ([2]; 240 min): 1.82 ± 0.26 % Dose/organ
Brain uptake ([2]; 240 min): 0.13 ± 0.04 % Dose/organ
Heart uptake ([2]; 240 min): 0.18 ± 0.03 % Dose/organ
Kidney uptake ([2]; 240 min): 0.73 ± 0.13 % Dose/organ
Liver uptake ([2]; 240 min): 4.57 ± 0.69 % Dose/organ
Lung uptake ([2]; 240 min): 0.54 ± 0.09 % Dose/organ
Muscle uptake (muscle assumed 40% of body weight) ([2]; 240 min): 11.24 ± 2.57 % Dose/organ
Skin uptake ([2]; 240 min): 4.21 ± 0.25 % Dose/organ
Spleen uptake ([2]; 240 min): 0.18 ± 0.02 % Dose/organ
Thyroid uptake ([2]; 240 min): 0.15 ± 0.18 % Dose/organ
Blood uptake (blood assumed 7% of body weight) ([2]; 6 hr, 2 rats only): 1.58 ± 0.15 % Dose/organ
Brain uptake ([2]; 6 hr, 2 rats only): 0.05 ± 0.001 % Dose/organ
Heart uptake ([2]; 6 hr, 2 rats only): 0.11 ± 0.01 % Dose/organ
Kidney uptake ([2]; 6 hr, 2 rats only): 0.45 ± 0.03 % Dose/organ
Liver uptake ([2]; 6 hr, 2 rats only): 3.21 ± 0.28 % Dose/organ
Lung uptake ([2]; 6 hr, 2 rats only): 0.36 % Dose/organ
Muscle uptake (muscle assumed 40% of body weight) ([2]; 6 hr, 2 rats only): 6.94 ± 0.93 % Dose/organ
Skin uptake ([2]; 6 hr, 2 rats only): 4.15 ± 0.63 % Dose/organ
Spleen uptake ([2]; 6 hr, 2 rats only): 0.11 ± 0.004 % Dose/organ
Thyroid uptake ([2]; 6 hr, 2 rats only): 0.42 ± 0.15 % Dose/organ
Blood uptake (blood assumed 7% of body weight) ([2]; 16 hr): 0.42 ± 0.07 % Dose/organ
Brain uptake ([2]; 16 hr): 0.008 ± 0.001 % Dose/organ
Heart uptake ([2]; 16 hr): 0.02 ± 0.003 % Dose/organ
Kidney uptake ([2]; 16 hr): 0.12 ± 0.015 % Dose/organ
Liver uptake ([2]; 16 hr): 1.32 ± 0.096 % Dose/organ
Lung uptake ([2]; 16 hr): 0.07 ± 0.006 % Dose/organ
Muscle uptake (muscle assumed 40% of body weight) ([2]; 16 hr): 1.49 ± 0.23 % Dose/organ
Skin uptake ([2]; 16 hr): 2.04 ± 0.18 % Dose/organ
Spleen uptake ([2]; 16 hr): 0.02 ± 0.002 % Dose/organ
Thyroid uptake ([2]; 16 hr): 0.009 ± 0.004 % Dose/organ
Regional distribution / selectivity in rat brain (in words) ([3]; listed as [^123 I]-2b): did not exhibit any selectivity
Regional distribution / selectivity in rat brain (in words) ([3]; listed as [^123 I]I-TBZ (2b)): exhibits no regional selectivity
Regional brain uptake, cerebellum ([3]; 60 min): 0.14 ± 0.04 % Dose/g
Regional brain uptake, cortex ([3]; 60 min): 0.14 ± 0.04 % Dose/g
Regional brain uptake, hippocampus ([3]; 60 min): 0.14 ± 0.02 % Dose/g
Regional brain uptake, striatum ([3]; 60 min): 0.15 ± 0.03 % Dose/g
Regional brain uptake, cerebellum ([3]; 120 min): 0.14 ± 0.003 % Dose/g
Regional brain uptake, cortex ([3]; 120 min): 0.15 ± 0.09 % Dose/g
Regional brain uptake, hippocampus ([3]; 120 min): 0.12 ± 0.04 % Dose/g
Regional brain uptake, striatum ([3]; 120 min): 0.12 ± 0.04 % Dose/g
tissue uptake at 2 min [3, 5]: 0.5 ± 0.13 %ID/g
tissue uptake at 0.5 h [3, 5]: 0.17 ± 0.03 %ID/g
tissue uptake at 4 h [3, 5]: 0.051 ± 0.014 %ID/g
tissue uptake at 6 h [3, 5]: 0.025 ± 0.0002 %ID/g
tissue uptake at 16 h [3, 5]: 0.0063 ± 0.001 %ID/g
tissue uptake at 2 min [3, 6]: 0.55 ± 0.24 %ID/g
tissue uptake at 0.5 h [3, 6]: 0.2 ± 0.02 %ID/g
tissue uptake at 4 h [3, 6]: 0.052 ± 0.021 %ID/g
tissue uptake at 6 h [3, 6]: 0.022 %ID/g
tissue uptake at 16 h [3, 6]: 0.0061 ± 0.0013 %ID/g
tissue uptake at 2 min [3, 7]: 0.58 ± 0.16 %ID/g
tissue uptake at 0.5 h [3, 7]: 0.21 ± 0.02 %ID/g
tissue uptake at 4 h [3, 7]: 0.048 ± 0.015 %ID/g
tissue uptake at 6 h [3, 7]: 0.028 ± 0.0064 %ID/g
tissue uptake at 16 h [3, 7]: 0.0051 ± 0.002 %ID/g
tissue uptake at 2 min [3, 8]: 0.54 ± 0.21 %ID/g
tissue uptake at 0.5 h [3, 8]: 0.21 ± 0.006 %ID/g
tissue uptake at 4 h [3, 8]: 0.056 ± 0.014 %ID/g
tissue uptake at 6 h [3, 8]: 0.024 ± 0.0029 %ID/g
tissue uptake at 16 h [3, 8]: 0.0062 ± 0.0026 %ID/g
Stable at room temperature for up to [4]: up to 15 h
